Assay results as given in PubChem BioAssay AID328 (DTP/NCI, 2004).
Where “and” joins values, the source holds several entries; their conditions need not be identical. Identical values can stand only once. Toxic doses and inconclusive results are not listed.

Tested on: BDF1 mice, P388 leukemia ip, median survival T/C
Assay: NCI In Vivo Anticancer Drug Screen. Data for tumor model P388 Leukemia (intraperitoneal) in B6D2F1 (BDF1) mice
Conditions: endpoint: median survival time, higher = longer survival
How it was run: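 Transplantable tumour in mice; compound vs vehicle dosing; survival scored; ratio of treated to control reported.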

[1] = dose: 100.0 mg/kg/injection, schedule: Q04DX003 (ip), vehicle: saline with Tween-80
[2] = dose: 200.0 mg/kg/injection, schedule: Q04DX003 (ip), vehicle: saline with Tween-80
[3] = dose: 400.0 mg/kg/injection, schedule: Q04DX003 (ip), vehicle: saline with Tween-80
[4] = dose: 100.0 mg/kg/injection, schedule: Q04DX003 (ip), vehicle: Klucel (hydroxypropylcellulose) (HPC)
[5] = dose: 200.0 mg/kg/injection, schedule: Q04DX003 (ip), vehicle: Klucel (hydroxypropylcellulose) (HPC)
[6] = dose: 400.0 mg/kg/injection, schedule: Q04DX003 (ip), vehicle: Klucel (hydroxypropylcellulose) (HPC)
[7] = dose: 6.25 mg/kg/injection, schedule: Q01DX009 (ip), vehicle: saline
[8] = dose: 12.5 mg/kg/injection, schedule: Q01DX009 (ip), vehicle: saline
[9] = dose: 25.0 mg/kg/injection, schedule: Q01DX009 (ip), vehicle: saline

For `O=c1[nH]c(=O)n([C@H]2CCCO2)cc1F`, the T/C (dose: 23.0 mg/kg/injection, schedule: Q01DX009 (ip), vehicle: water) was 89 % of control, the T/C (dose: 39.0 mg/kg/injection, schedule: Q01DX009 (ip), vehicle: water) was 87 % of control and the T/C (dose: 44.0 mg/kg/injection, schedule: Q01DX009 (ip), vehicle: Klucel (hydroxypropylcellulose) (HPC)) was 104 % of control and 108 % of control and 109 % of control. For the same molecule, the T/C (dose: 59.0 mg/kg/injection, schedule: Q01DX009 (ip), vehicle: Klucel (hydroxypropylcellulose) (HPC)) was 100 % of control and 107 % of control and 111 % of control, the T/C (dose: 65.0 mg/kg/injection, schedule: Q01DX009 (ip), vehicle: water) was 99 % of control and the T/C (dose: 65.0 mg/kg/injection, schedule: Q04DX003 (ip), vehicle: water) was 89 % of control. The T/C (dose: 75.0 mg/kg/injection, schedule: Q04DX003 (ip), vehicle: other) was 118 % of control, the T/C (dose: 90.0 mg/kg/injection, schedule: Q01DX009 (ip), vehicle: Klucel (hydroxypropylcellulose) (HPC)) was 87 % of control and 104 % of control and 112 % of control and the T/C (dose: 108.0 mg/kg/injection, schedule: Q01DX009 (ip), vehicle: water) was 101 % of control. The T/C (dose: 108.0 mg/kg/injection, schedule: Q04DX003 (ip), vehicle: water) was 98 % of control, the T/C (dose: 134.0 mg/kg/injection, schedule: Q01DX009 (ip), vehicle: Klucel (hydroxypropylcellulose) (HPC)) was 108 % of control and 120 % of control (2×) and the T/C (dose: 142.0 mg/kg/injection, schedule: Q04DX003 (ip), vehicle: Klucel (hydroxypropylcellulose) (HPC)) was 103 % of control and 109 % of control and 110 % of control. The T/C (dose: 150.0 mg/kg/injection, schedule: Q04DX003 (ip), vehicle: other) was 118 % of control, the T/C (dose: 180.0 mg/kg/injection, schedule: Q01DX009 (ip), vehicle: water) was 89 % of control and the T/C (dose: 180.0 mg/kg/injection, schedule: Q04DX003 (ip), vehicle: water) was 96 % of control. The T/C (dose: 189.0 mg/kg/injection, schedule: Q04DX003 (ip), vehicle: Klucel (hydroxypropylcellulose) (HPC)) was 105 % of control and 113 % of control and 117 % of control, the T/C (dose: 201.0 mg/kg/injection, schedule: Q01DX009 (ip), vehicle: Klucel (hydroxypropylcellulose) (HPC)) was 102 % of control and 111 % of control and the T/C (dose: 288.0 mg/kg/injection, schedule: Q04DX003 (ip), vehicle: Klucel (hydroxypropylcellulose) (HPC)) was 109 % of control and 112 % of control and 118 % of control. For the same molecule, the T/C (dose: 300.0 mg/kg/injection, schedule: Q04DX003 (ip), vehicle: other) was 118 % of control, the T/C (dose: 300.0 mg/kg/injection, schedule: Q04DX003 (ip), vehicle: water) was 100 % of control and the T/C (dose: 316.0 mg/kg/injection, schedule: Q01DX001 (ip), vehicle: Klucel (hydroxypropylcellulose) (HPC)) was 104 % of control (2×) and 109 % of control. For the same molecule, the T/C (dose: 421.0 mg/kg/injection, schedule: Q01DX001 (ip), vehicle: Klucel (hydroxypropylcellulose) (HPC)) was 109 % of control and 111 % of control and 123 % of control, the T/C (dose: 430.0 mg/kg/injection, schedule: Q04DX003 (ip), vehicle: Klucel (hydroxypropylcellulose) (HPC)) was 109 % of control and 110 % of control and 113 % of control and the T/C (dose: 500.0 mg/kg/injection, schedule: Q04DX003 (ip), vehicle: water) was 92 % of control. For the same molecule, the T/C (dose: 600.0 mg/kg/injection, schedule: Q04DX003 (ip), vehicle: other) was 95 % of control, the T/C (dose: 641.0 mg/kg/injection, schedule: Q01DX001 (ip), vehicle: Klucel (hydroxypropylcellulose) (HPC)) was 104 % of control and 118 % of control and 124 % of control and the T/C (dose: 645.0 mg/kg/injection, schedule: Q04DX003 (ip), vehicle: Klucel (hydroxypropylcellulose) (HPC)) was 111 % of control and 114 % of control. For the same molecule, the T/C (dose: 957.0 mg/kg/injection, schedule: Q01DX001 (ip), vehicle: Klucel (hydroxypropylcellulose) (HPC)) was 104 % of control and 123 % of control, the T/C (dose: 1200.0 mg/kg/injection, schedule: Q04DX003 (ip), vehicle: other) was 90 % of control and the T/C (dose: 1436.0 mg/kg/injection, schedule: Q01DX001 (ip), vehicle: Klucel (hydroxypropylcellulose) (HPC)) was 105 % of control and 117 % of control.
In the case of `CC(N)C(=O)NCCN(C)C` (centres undefined), the T/C (dose: 50.0 mg/kg/injection, schedule: Q01DX005 (ip), vehicle: saline) is reported as 95 % of control, the T/C (dose: 100.0 mg/kg/injection, schedule: Q01DX005 (ip), vehicle: saline) is reported as 107 % of control and the T/C (dose: 200.0 mg/kg/injection, schedule: Q01DX005 (ip), vehicle: saline) is reported as 99 % of control.
In the case of `CCCCC(CC)COC(=O)CCC(CCC(=O)OCC(CC)CCCC)C(=O)OCC(CC)CCCC` (centres undefined), the T/C [1] is reported as 90 % of control, the T/C [2] is reported as 118 % of control and the T/C [3] is reported as 95 % of control.
`CC[N+](CC)(CC)CC.N#C/C([SH2+])=C(/[SH2+])C#N.N#C/C([SH2+])=C(/[SH2+])C#N.[Fe+2]` was tested, and the T/C (dose: 1.56 mg/kg/injection, schedule: Q01DX009 (ip), vehicle: saline with Tween-80) was 105 % of control, the T/C (dose: 3.12 mg/kg/injection, schedule: Q01DX009 (ip), vehicle: saline with Tween-80) was 110 % of control and the T/C (dose: 3.5 mg/kg/injection, schedule: Q01DX001 (ip), vehicle: saline with Tween-80) was 100 % of control. For the same molecule, the T/C (dose: 6.25 mg/kg/injection, schedule: Q01DX009 (ip), vehicle: saline with Tween-80) was 110 % of control, the T/C (dose: 7.0 mg/kg/injection, schedule: Q01DX001 (ip), vehicle: saline with Tween-80) was 95 % of control and the T/C (dose: 9.2 mg/kg/injection, schedule: Q04DX003 (ip), vehicle: saline with Tween-80) was 100 % of control. The T/C (dose: 14.0 mg/kg/injection, schedule: Q04DX003 (ip), vehicle: saline with Tween-80) was 95 % of control.
For `COC(=O)C12OCC34C(CC5=C(C)C(=O)C(O)=CC5(C)C3C(O)C1O)OC(=O)C(OC(=O)c1ccccc1)C24` (centres undefined), the T/C (dose: 0.04 mg/kg/injection, schedule: Q01DX009 (ip), vehicle: saline + alcohol) was 111 % of control and the T/C (dose: 4.0 mg/kg/injection, schedule: Q01DX009 (ip), vehicle: saline + alcohol) was 100 % of control.
In the case of `O=c1oc(-c2ccccc2)nc2cc(Cl)ccc12`, the T/C (dose: 50.0 mg/kg/injection, schedule: Q04DX003 (ip), vehicle: saline with Tween-80) is reported as 100 % of control and 109 % of control, the T/C [1] is reported as 100 % of control and 109 % of control and the T/C [2] is reported as 104 % of control.
With `O=C1NNC(c2ccccc2)C1(Cl)Cl` (centres undefined) the T/C (dose: 12.5 mg/kg/injection, schedule: Q01DX009 (ip), vehicle: saline with Tween-80) was 114 % of control and the T/C (dose: 25.0 mg/kg/injection, schedule: Q01DX009 (ip), vehicle: saline with Tween-80) was 99 % of control.
`O=C(NC(CO)C(=O)OCc1ccccc1)OCc1ccccc1` (centres undefined) was tested, and the T/C [4] was 95 % of control, the T/C [1] was 100 % of control and the T/C [5] was 87 % of control. For the same molecule, the T/C [2] was 100 % of control, the T/C [6] was 91 % of control and the T/C [3] was 100 % of control.
In the case of `CCCCCCCCCCCCOc1ccc(C=O)cc1OC`, the T/C (dose: 100.0 mg/kg/injection, schedule: Q01DX001 (ip), vehicle: Klucel (hydroxypropylcellulose) (HPC)) is reported as 100 % of control, the T/C (dose: 200.0 mg/kg/injection, schedule: Q01DX001 (ip), vehicle: Klucel (hydroxypropylcellulose) (HPC)) is reported as 90 % of control and the T/C (dose: 400.0 mg/kg/injection, schedule: Q01DX001 (ip), vehicle: Klucel (hydroxypropylcellulose) (HPC)) is reported as 100 % of control.
`COc1cc(N(CCCl)CCCl)c(OC)cc1/C=N\Nc1nncn1N` was tested, and the T/C (dose: 2.2 mg/kg/injection, schedule: Q01DX009 (ip), vehicle: saline) was 168 % of control, the T/C (dose: 3.3 mg/kg/injection, schedule: Q01DX009 (ip), vehicle: saline) was 163 % of control and the T/C (dose: 5.0 mg/kg/injection, schedule: Q01DX009 (ip), vehicle: saline) was 186 % of control. For the same molecule, the T/C (dose: 5.0 mg/kg/injection, schedule: Q04DX003 (ip), vehicle: saline) was 179 % of control, the T/C [7] was 172 % of control and the T/C (dose: 7.5 mg/kg/injection, schedule: Q01DX009 (ip), vehicle: saline) was 240 % of control. The T/C (dose: 10.0 mg/kg/injection, schedule: Q04DX003 (ip), vehicle: saline) was 212 % of control, the T/C [8] was 90 % of control and the T/C (dose: 20.0 mg/kg/injection, schedule: Q04DX003 (ip), vehicle: saline) was 108 % of control. The T/C [9] was 86 % of control and the T/C (dose: 25.0 mg/kg/injection, schedule: Q04DX003 (ip), vehicle: saline sonified) was 177 % of control.
In the case of `Cc1cccc(/C=N\OCc2ccccc2)n1`, the T/C [1] is reported as 118 % of control, the T/C (dose: 132.0 mg/kg/injection, schedule: Q04DX003 (ip), vehicle: saline with Tween-80) is reported as 104 % of control and the T/C [2] is reported as 100 % of control. The T/C (dose: 300.0 mg/kg/injection, schedule: Q04DX003 (ip), vehicle: saline with Tween-80) was 108 % of control and the T/C [3] was 118 % of control.
For `CCCCCCCCCCCCNC(=O)c1ccc[n+](C)c1`, the T/C [7] was 118 % of control, the T/C [8] was 109 % of control and the T/C [9] was 113 % of control.
For `O=C(NCCCl)Nc1cccc2cc3ccccc3cc12`, the T/C [4] was 100 % of control, the T/C [5] was 95 % of control and the T/C [6] was 90 % of control.
With `CCCCCCNC(=S)/N=C(\N)n1nc(C)cc1C` the T/C (dose: 50.0 mg/kg/injection, schedule: Q01DX009 (ip), vehicle: saline with Tween-80) was 109 % of control, the T/C (dose: 100.0 mg/kg/injection, schedule: Q01DX009 (ip), vehicle: saline with Tween-80) was 99 % of control and the T/C (dose: 200.0 mg/kg/injection, schedule: Q01DX009 (ip), vehicle: saline with Tween-80) was 112 % of control.
